Measured values from US9499502B2, “5-substituted iminothiazines and their mono- and dioxides as BACE inhibitors, compositions, and their use” (Merck Sharp & Dohme Corp., priority 2011, dated 2016).
Read-outs that look alike come from different tables or passages of the source.

Assays:
[1] = biological target: purified human autoBACE-2 (Homo sapiens (Human), UniProt Q9Y5Z0); test: BACE-2 Assay (BACE-HTRF assay); assay type: biochemical; conditions: Ki calculated from IC50 using the Cheng-Prusoff equation; read-out: BACE2 Ki
Procedure: Inhibitor IC50s at purified human autoBACE-2 are determined in a time-resolved endpoint proteolysis assay that measures hydrolysis of the QSY7-[…]-Eu-amide FRET peptide substrate (BACE-HTRF assay). […] DMSO is present at 5% final concentration in the assay. Following laser excitation of sample wells at 320 nm, the fluorescence signal at 620 nm is collected for 400 ms following a 50 μs delay on a RUBYstar HTRF plate reader (BMG Labtechnologies). Raw RFU data is normalized to maximum (1.0 nM BACE/DMSO) and minimum (no enzyme/DMSO) RFU values. […] The Ki values are calculated from the IC50 using the Cheng-Prusoff equation.

[2] = biological target: soluble human BACE1 catalytic domain (Homo sapiens (Human), UniProt P56817); test: BACE1 HTRF FRET Assay; conditions: for Ki: read-out: BACE1 Ki
[3] = Ki calculated from IC50 using the Cheng-Prusoff equation

Chain of purified human autoBACE-2 (Q9Y5Z0 63-473): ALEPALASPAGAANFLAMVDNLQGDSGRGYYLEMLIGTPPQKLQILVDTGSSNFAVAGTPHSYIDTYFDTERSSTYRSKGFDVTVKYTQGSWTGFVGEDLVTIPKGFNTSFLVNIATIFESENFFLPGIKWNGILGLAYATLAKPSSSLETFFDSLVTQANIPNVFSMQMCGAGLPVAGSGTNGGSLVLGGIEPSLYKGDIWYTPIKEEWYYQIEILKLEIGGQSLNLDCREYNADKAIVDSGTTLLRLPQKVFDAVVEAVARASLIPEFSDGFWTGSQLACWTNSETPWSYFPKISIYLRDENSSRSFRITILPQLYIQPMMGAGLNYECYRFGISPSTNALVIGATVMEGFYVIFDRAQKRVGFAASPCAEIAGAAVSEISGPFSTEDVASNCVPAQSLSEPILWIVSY
Chain of soluble human BACE1 catalytic domain (P56817 75-416): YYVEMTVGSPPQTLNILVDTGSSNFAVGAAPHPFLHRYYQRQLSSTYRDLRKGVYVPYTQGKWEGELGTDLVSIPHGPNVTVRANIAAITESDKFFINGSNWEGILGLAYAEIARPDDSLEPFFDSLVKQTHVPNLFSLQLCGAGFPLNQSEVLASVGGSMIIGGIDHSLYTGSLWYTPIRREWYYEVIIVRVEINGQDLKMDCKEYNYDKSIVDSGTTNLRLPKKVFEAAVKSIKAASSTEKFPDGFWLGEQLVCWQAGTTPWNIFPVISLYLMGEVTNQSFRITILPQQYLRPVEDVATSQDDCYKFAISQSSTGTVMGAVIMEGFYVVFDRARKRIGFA

Compound | Ki [1] [nM] | Ki [2, 3] [nM] | inhibition at 1 µM ([2]; read-out: BACE1 % Inh. at 1 μM, at 1 μM) [%] | Ki [2] [nM]
COc1cnc(C(=O)Nc2ccc(F)c([C@]3(C)CS(=O)(=O)[C@](C)(c4ccc(F)cc4)C(=N)N3)c2)cn1 [Example 9dg-b] | 101 to 700 | 186 | – | –
COc1cnc(C(=O)Nc2ccc(F)c([C@]3(C)CS(=O)(=O)[C@](C)(CC4CC4)C(=N)N3)c2)cn1 [Example 9dk-b] | 11 to 100 | 42.6 | – | –
C[C@@]1(c2cc(NC(=O)c3ccc(C(F)(F)F)cn3)ccc2F)CS(=O)(=O)[C@](C)(CC2CC2)C(=N)N1 [Example 9dl-b] | 11 to 100 | 33.2 | – | –
C=CC[C@]1(C)C(=N)N[C@](C)(c2cc(NC(=O)c3cnc(OC)cn3)ccc2F)CS1(=O)=O [Example 9dm-b] | 11 to 100 | 33.6 | – | –
C[C@@]1(c2cc(NC(=O)c3ccc(F)cn3)ccc2F)CS(=O)(=O)[C@](C)(CC(F)(F)F)C(=N)N1 [Example 9dp-b] | 11 to 100 | 74.5 | – | –
COc1ccc(C(=O)Nc2ccc(F)c([C@]3(C)CS(=O)(=O)[C@](C)(CC(F)(F)F)C(=N)N3)c2)nc1 [Example 9dq-b] | 11 to 100 | 54.3 | – | –
COc1cnc(C(=O)Nc2ccc(F)c([C@]3(C)CS(=O)(=O)[C@](C)(CC(F)(F)F)C(=N)N3)c2)cn1 [Example 9dr-b] | 101 to 700 | 137 | – | –
C[C@@]1(C2CCC2)C(=N)N[C@](C)(c2cc(NC(=O)c3ccc(F)cn3)ccc2F)CS1(=O)=O [Example 9dv-b] | 11 to 100 | 304 | – | –
C[C@@]1(C2CCC2)C(=N)N[C@](C)(c2cc(NC(=O)c3ccc(Cl)cn3)ccc2F)CS1(=O)=O [Example 9dw-b] | 11 to 100 | 66.3 | – | –
COc1ccc(C(=O)Nc2ccc(F)c([C@]3(C)CS(=O)(=O)[C@](C)(C4CCC4)C(=N)N3)c2)nc1 [Example 9dx-b] | 101 to 700 | 307 | – | –
COc1cnc(C(=O)Nc2ccc(F)c([C@]3(C)CS(=O)(=O)[C@](C)(C4CCC4)C(=N)N3)c2)cn1 [Example 9dy-b] | 101 to 700 | 499 | – | –
C[C@@]1(C2CCC2)C(=N)N[C@](C)(c2cc(NC(=O)c3ccc(C(F)(F)F)cn3)ccc2F)CS1(=O)=O [Example 9dz-b] | 101 to 700 | 123 | – | –
CC(C)[C@]1(C)C(=N)N[C@](C)(c2cc(NC(=O)c3ccc(F)cn3)ccc2F)CS1(=O)=O [Example 9ea-b] | 11 to 100 | 224 | – | –
COc1ccc(C(=O)Nc2ccc(F)c([C@]3(C)CS(=O)(=O)[C@](C)(C(C)C)C(=N)N3)c2)nc1 [Example 9eb-b] | 101 to 700 | 257 | – | –
COc1cnc(C(=O)Nc2ccc(F)c([C@]3(C)CS(=O)(=O)[C@@](C)(C(C)C)C(=N)N3)c2)cn1 [Example 9ec-a] | 11 to 100 | 14.9 | – | –
COc1cnc(C(=O)Nc2ccc(F)c([C@]3(C)CS(=O)(=O)[C@](C)(C(C)C)C(=N)N3)c2)cn1 [Example 9ec-b] | 101 to 700 | 522 | – | –
CC1(C)C(=N)N[C@](C)(c2cc(NC(=N)c3ncc(F)cc3F)ccc2F)CS1(=O)=O [Example 9ef] | 218 | 989 | – | –
Cc1nnc(C(=O)Nc2ccc(F)c([C@]3(C)CS(=O)(=O)C(C)(C)C(=N)N3)c2)o1 [Example 9i] | 49 | 185 | – | –
COc1cnc(C(=O)Nc2cc(F)c(F)c([C@]3(C)CS(=O)(=O)C(C)(C)C(=N)N3)c2)cn1 [Example 9n] | 12 | 6.6 | – | –
CC1(C)C(=N)N[C@](C)(c2cc(NC(=O)c3ccc(C(F)(F)F)cn3)cc(Cl)c2F)CS1(=O)=O [Example 9v] | 13 | 9.6 | – | –
COc1ccc(C(=O)Nc2ccc(F)c([C@]3(C)CS(=O)(=O)C(C)(C)C(=N)N3)c2F)nc1 [Example 9y] | 11 | 44 | – | –
COc1cnc(C(=O)Nc2ccc(F)c([C@]3(C)CS(=O)(=O)C(C)(C)C(=N)N3)c2F)cn1 [Example 9z] | 59 | 52.9 | – | –

Compound | Ki [1] [nM] | Ki [2, 3] [nM] | inhibition at 1 µM ([2]; read-out: BACE1 % Inh. at 1 μM, at 1 μM) [%] | Ki [2] [nM]
CC1(C)C(=N)N[C@](C)(c2cc(-c3cc(F)cc(-c4nnco4)c3)ccc2F)CS1(=O)=O [Example 16a] | 445 | – | 43 | –
CC1(C)C(=N)N[C@](C)(c2sc(C(=O)Nc3cccc(Cl)n3)cc2Cl)CS1(=O)=O [Example 20] | 8 | 26.9 | – | –
CC1=NOC(CNC(=O)c2cc(Cl)c([C@]3(C)CS(=O)(=O)C(C)(C)C(=N)N3)s2)C1 (some centres unmarked) [Example 22f] | 1800 | 616 | – | –
CC1(C)C(=N)N[C@](C)(c2sc(C(=O)NCc3cccc(-c4ccon4)c3)cc2Cl)CS1(=O)=O [Example 22g] | 51 | 736 | – | –
CC1(C)C(=N)N[C@](C)(c2sc(C(=O)NCc3cc(Cl)ccn3)cc2Cl)CS1(=O)=O [Example 22u] | 77 | 2720 | – | –
CC1(C)C(=N)N[C@](C)(c2sc(-c3cncc(C#N)c3)cc2Cl)CS1(=O)=O [Example 23] | < 200 | 63 | – | –
CC1(C)C(=N)N[C@](C)(c2sc(-c3cncnc3)cc2Cl)CS1(=O)=O [Example 24] | 314 | 387 | – | –
CC1(C)C(=N)N[C@](C)(c2sc(-c3ccc(F)c(C(F)(F)F)c3)cc2Cl)CS1(=O)=O [Example 27a] | < 200 | 172 | – | –
COc1cccc2cc(-c3cc(F)c([C@]4(C)CS(=O)(=O)C(C)(C)C(=N)N4)s3)[nH]c12 [Example 27an] | ≤ 20 | – | – | 21
CC1(C)C(=N)N[C@](C)(c2sc(-c3cccc(-c4ncon4)c3)cc2F)CS1(=O)=O [Example 27ao] | ≤ 20 | – | – | 100
CC1(C)C(=N)N[C@](C)(c2sc(-c3cccc(C#N)c3)cc2F)CS1(=O)=O [Example 27aq] | ≤ 20 | – | – | 76
CC1(C)C(=N)N[C@](C)(c2sc(-c3cc(F)cc(-c4nnco4)c3)cc2F)CS1(=O)=O [Example 27as] | ≤ 20 | – | – | 9.4
CC1(C)C(=N)N[C@](C)(c2sc(-c3cc(F)cc(-c4cnco4)c3)cc2F)CS1(=O)=O [Example 27at] | ≤ 20 | – | – | 26
CC1(C)C(=N)N[C@](C)(c2sc(-c3nnc(-c4ccc(F)cc4)o3)cc2Cl)CS1(=O)=O [Example 27bb] | ≤ 20 | 102 | – | –
CC1(C)C(=N)N[C@](C)(c2sc(-c3nnc(-c4ccc(Cl)cc4)o3)cc2Cl)CS1(=O)=O [Example 27bc] | ≤ 20 | 35.9 | – | –
CC1(C)C(=N)N[C@](C)(c2sc(-c3nnc(-c4ccc(Cl)cc4)o3)cc2F)CS1(=O)=O [Example 27bf] | ≤ 20 | – | – | 30.9
CC1(C)C(=N)N[C@](C)(c2sc(-c3nnc(-c4ccc(F)cc4)o3)cc2F)CS1(=O)=O [Example 27bg] | ≤ 20 | – | – | 79.3
COc1ccc(-c2nnc(-c3cc(F)c([C@]4(C)CS(=O)(=O)C(C)(C)C(=N)N4)s3)o2)cc1 [Example 27bh] | ≤ 20 | – | – | 74
C[C@]1(CC(F)(F)F)C(=N)N[C@](C)(c2sc(-c3cccc(C#N)c3)cc2F)CS1(=O)=O [Example 27bj-a] | 7 | – | – | 35.7
C[C@]1(CC(F)(F)F)C(=N)N[C@](C)(c2sc(-c3cccc(-c4nnco4)c3)cc2F)CS1(=O)=O [Example 27bk-a] | 9 | – | – | 4.7
COc1cccc(-c2cc(F)c([C@]3(C)CS(=O)(=O)[C@@](C)(CC(F)(F)F)C(=N)N3)s2)c1 [Example 27bl-a] | 9 | – | – | 223
